Data taken from BindingDB's records for doi:10.1016/s1074-5521(97)90198-8 (Massachusetts Institute of Technology, 1997).

Target: Methionine aminopeptidase 2 (Homo sapiens, UniProt P50579)
Assay: Enzymatic Assay
Conditions: pH 7.35; 37 °C
Excerpt: Enzymatic assay using recombinant human type 2 methionine aminopeptidase (MetAP2).

Chain of Methionine aminopeptidase 2 (P50579 whole entry): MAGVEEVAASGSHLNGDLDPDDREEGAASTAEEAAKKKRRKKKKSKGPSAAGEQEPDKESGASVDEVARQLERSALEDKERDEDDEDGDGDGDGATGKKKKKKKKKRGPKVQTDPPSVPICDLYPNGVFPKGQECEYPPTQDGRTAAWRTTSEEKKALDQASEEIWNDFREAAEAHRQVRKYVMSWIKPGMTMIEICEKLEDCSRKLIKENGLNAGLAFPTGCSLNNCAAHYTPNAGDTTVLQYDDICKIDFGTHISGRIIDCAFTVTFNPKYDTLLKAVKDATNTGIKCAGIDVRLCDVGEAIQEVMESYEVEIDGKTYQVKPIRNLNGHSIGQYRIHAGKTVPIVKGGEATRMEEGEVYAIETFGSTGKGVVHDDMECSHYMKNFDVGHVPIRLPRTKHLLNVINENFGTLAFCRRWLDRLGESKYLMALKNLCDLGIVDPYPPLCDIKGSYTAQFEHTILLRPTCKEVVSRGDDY

Compound	IC50 [nM]
CO[C@H]1C([C@]2(C)OC2CC=C(C)C)[C@]2(CC[C@H]1OC(=O)NC(=O)CCl)CO2 (stereo not given in full) [AGM-1470]	1
CO[C@@H]1[C@H](O)CC[C@]2(CO2)[C@@]1(O)[C@]1(C)OC1CC=C(C)C (stereo not given in full) [FOS-34]	4
CO[C@H]1C([C@]2(C)OC2CC=C(C)C)[C@]2(CC[C@H]1O)CO2 (stereo not given in full) [FOS-37]	8
CO[C@H]1C([C@]2(C)OC2CC=C(C)C)[C@@](O)(SC)CC[C@H]1OC(=O)NC(=O)CCl (stereo not given in full) [FOS-64]	3000
CO[C@@H]1[C@H](OC(=O)NC(=O)CCl)CC[C@]2(CO2)[C@@]1(O)[C@]1(C)OC1CC=C(C)C (stereo not given in full) [FOS-68]	2
CO[C@@H]1[C@H](OC(=O)CCCCl)CC[C@]2(CO2)[C@@]1(O)[C@]1(C)OC1CC=C(C)C (stereo not given in full) [FOS-69]	0.1
CO[C@H]1C([C@]2(C)OC2CC=C(C)C)[C@]2(CC[C@H]1OC(=O)CCCCl)CO2 (stereo not given in full) [FOS-70]	3.5
CO[C@@H]1C(=O)CC[C@]2(CO2)C1[C@]1(C)OC1CC=C(C)C (stereo not given in full) [FOS-72]	6
CO[C@@H]1[C@H](O)CC[C@](O)(SC)[C@@]1(O)[C@]1(C)OC1CC=C(C)C (stereo not given in full) [FOS-201]	45
CO[C@H]1C([C@]2(C)OC2CC=C(C)C)[C@@](O)(SC)CC[C@H]1O (stereo not given in full) [FOS-202]	5000
